Data from ChEMBL document CHEMBL4715913, “Discovery of benzo[f]pyrido[4,3-b][1,4]oxazepin-10-one derivatives as orally available bromodomain and extra-terminal domain (BET) inhibitors with efficacy in an in vivo psoriatic animal model” (Bioorg Med Chem, 2021).
Calls of active or inactive are those of the source. The calls are words filed in the database; no cut-off is given here.

Experiments:
[1] = biological target: Mitogen-activated protein kinase 7 (Homo sapiens, UniProt Q13164); assay: Inhibition of recombinant human ERK5 using myelin basic protein as substrate by [gamm33P]ATP based HotSpot radiometric assay
Mitogen-activated protein kinase 7, sequence (Q13164 whole entry): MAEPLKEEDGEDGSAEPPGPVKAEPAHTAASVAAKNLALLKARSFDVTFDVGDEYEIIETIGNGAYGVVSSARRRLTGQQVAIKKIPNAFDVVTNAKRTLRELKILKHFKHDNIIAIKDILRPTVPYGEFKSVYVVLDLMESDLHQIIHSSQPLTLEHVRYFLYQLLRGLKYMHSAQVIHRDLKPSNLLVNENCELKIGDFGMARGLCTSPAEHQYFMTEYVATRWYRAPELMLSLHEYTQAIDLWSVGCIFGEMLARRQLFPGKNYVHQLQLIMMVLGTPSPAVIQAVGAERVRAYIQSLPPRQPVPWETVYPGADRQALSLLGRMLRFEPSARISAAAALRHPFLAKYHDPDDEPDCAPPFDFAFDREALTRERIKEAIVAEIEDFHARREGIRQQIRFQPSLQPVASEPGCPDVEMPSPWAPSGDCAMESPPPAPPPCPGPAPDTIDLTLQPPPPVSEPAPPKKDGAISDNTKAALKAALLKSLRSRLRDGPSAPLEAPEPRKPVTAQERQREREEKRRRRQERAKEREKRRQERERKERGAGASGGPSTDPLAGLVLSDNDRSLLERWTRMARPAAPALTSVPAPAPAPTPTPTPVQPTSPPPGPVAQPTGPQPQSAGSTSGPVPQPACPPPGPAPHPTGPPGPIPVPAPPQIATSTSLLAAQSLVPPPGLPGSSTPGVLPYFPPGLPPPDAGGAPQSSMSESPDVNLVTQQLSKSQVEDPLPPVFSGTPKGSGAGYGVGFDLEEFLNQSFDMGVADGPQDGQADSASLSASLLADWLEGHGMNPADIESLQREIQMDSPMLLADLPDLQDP

PBMC [2] = assay: Inhibition of MCP-1 production in LPS-induced human PBMC preincubated for 1 hr followed by LPS-stimulation and measured after 20 hrs by magnetic beads technique based assay; format: functional, tissue-based; settings: time 21.0 hrs
[3] = biological target: T1, Bromodomain-containing protein 4 (Homo sapiens, UniProt O60885); assay: Inhibition of BRD4-BD1 (unknown origin) by TR-FRET assay
[4] = biological target: T1, Bromodomain-containing protein 4; assay: Inhibition of BRD4 in human PBMC assessed as reduction in LPS-induced TNFalpha secretion preincubated for 1 hr followed by LPS-stimulation and measured after 20 hrs by magnetic beads technique based assay
PBMC [5] = assay: Inhibition of IL-6 production in LPS-induced human PBMC preincubated for 1 hr followed by LPS-stimulation and measured after 20 hrs by magnetic beads technique based assay; format: functional, tissue-based; settings: time 21.0 hrs
[6] = biological target: Voltage-gated inwardly rectifying potassium channel KCNH2 (Homo sapiens, UniProt Q12809); assay: Inhibition of human ERG stably expressed in CHO cells at holding potential of -80 mV incubated for 12 mins
Voltage-gated inwardly rectifying potassium channel KCNH2, sequence (Q12809 whole entry): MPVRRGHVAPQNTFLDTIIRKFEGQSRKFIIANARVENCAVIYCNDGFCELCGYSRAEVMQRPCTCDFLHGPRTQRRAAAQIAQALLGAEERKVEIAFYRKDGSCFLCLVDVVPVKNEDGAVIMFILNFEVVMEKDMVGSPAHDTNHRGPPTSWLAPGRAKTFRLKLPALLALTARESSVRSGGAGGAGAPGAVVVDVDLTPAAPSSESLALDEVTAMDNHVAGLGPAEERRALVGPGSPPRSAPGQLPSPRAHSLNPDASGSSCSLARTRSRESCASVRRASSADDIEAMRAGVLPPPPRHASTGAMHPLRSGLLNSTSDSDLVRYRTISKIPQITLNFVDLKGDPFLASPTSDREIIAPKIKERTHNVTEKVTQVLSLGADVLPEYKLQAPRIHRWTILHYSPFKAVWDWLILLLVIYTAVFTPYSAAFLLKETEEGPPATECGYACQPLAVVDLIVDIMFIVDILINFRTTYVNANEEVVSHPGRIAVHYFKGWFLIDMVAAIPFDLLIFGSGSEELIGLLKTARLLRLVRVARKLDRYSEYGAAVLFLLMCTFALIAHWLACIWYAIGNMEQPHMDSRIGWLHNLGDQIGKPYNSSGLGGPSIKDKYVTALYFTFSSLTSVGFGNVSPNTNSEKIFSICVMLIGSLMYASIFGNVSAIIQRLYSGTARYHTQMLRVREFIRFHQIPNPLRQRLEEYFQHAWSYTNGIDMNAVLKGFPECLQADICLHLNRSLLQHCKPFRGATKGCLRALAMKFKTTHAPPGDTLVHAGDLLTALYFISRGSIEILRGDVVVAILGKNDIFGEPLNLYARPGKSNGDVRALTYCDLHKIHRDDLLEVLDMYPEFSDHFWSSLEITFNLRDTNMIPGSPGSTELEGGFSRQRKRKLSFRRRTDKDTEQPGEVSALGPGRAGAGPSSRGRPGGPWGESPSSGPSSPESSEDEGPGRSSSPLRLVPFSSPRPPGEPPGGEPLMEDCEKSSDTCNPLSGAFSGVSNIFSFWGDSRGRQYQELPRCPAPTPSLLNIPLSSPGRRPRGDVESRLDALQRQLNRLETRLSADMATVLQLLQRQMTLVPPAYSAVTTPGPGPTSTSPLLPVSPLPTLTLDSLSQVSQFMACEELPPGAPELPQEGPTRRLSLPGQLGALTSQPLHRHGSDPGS

[7] = Stability of compound in human liver microsomes assessed as parent compound remaining after 1 hr
Mus musculus = assay: Protection against imiquimod-induced Harlan Balb/c mouse model of psoriasis assessed as decrease in ear thickness at 10 mg/kg, po administered BID for 7 days measured on day 8 by dial gauge micrometer analysis; format: functional, organism-based; settings: time 7.0 day
[8] = Toxicity in imiquimod-induced Harlan Balb/c mouse model of psoriasis assessed as effect on body weight at 10 mg/kg, po BID for 7 days; format: organism-based; settings: in vivo, 168 h, time 7 day

| IC50 [1] | IC50 [3] | EC50 [4] | remaining at 1 h [7] | Structure (SMILES) | inhibition (PBMC [2]) | inhibition (PBMC [5]) | IC50 [6] | Activity (Mus musculus) | Activity [8] |
| --- | --- | --- | --- | --- | --- | --- | --- | --- | --- |
| 2.23 µM | 6.91 µM | 3.07 µM | – | CN1C(=O)c2ccccc2N(C)c2cc(N[C@H]3CC[C@@H](O)CC3)ncc21 | Active | Active | – | – | – |
| 1.1 µM | 2.82 µM | 1.38 µM | 85% | COc1cccc2c1Oc1cc(N[C@H]3CC[C@H](O)CC3)ncc1N(C)C2=O | Active | Active | > 10 µM | – | – |
| – | > 30 µM | – | – | CN1C(=O)c2ccccc2S(=O)(=O)c2cc(N[C@H]3CC[C@H](O)CC3)ncc21 | Active | Active | – | – | – |
| 0.393 µM | 11.2 µM | 1.72 µM | 114% | CN1C(=O)c2cccc(F)c2Oc2cc(N[C@H]3CC[C@H](O)CC3)ncc21 | Active | Active | > 10 µM | – | – |
| – | – | – | – | CCOc1cc([C@@H](CS(C)(=O)=O)N2C(=O)c3cccc(NC(C)=O)c3C2=O)ccc1OC | – | – | – | Active | Non-Toxic |
| 0.213 µM | 2.01 µM | 0.43 µM | 90% | CN1C(=O)c2c(F)ccc(F)c2Oc2cc(N[C@H]3CC[C@H](O)CC3)ncc21 | Active | Active | > 10 µM | – | – |
| 1.05 µM | 12.8 µM | 1.17 µM | 103% | CN1C(=O)c2cccc(Cl)c2Oc2cc(N[C@H]3CC[C@H](O)CC3)ncc21 | Active | Active | > 10 µM | – | – |
